{"source": "patent US11845763B2", "about": "“Tricarbonyl complexes of transition metals with benzo-heterocyclic derivatives of the cyclopentadienyl anion” (National Centre For Scientific Research “Demokritos”, priority 2018, dated 2023)", "key": {"[1]": {"assay": "Brain uptake of literature 99mTc agents (cited)", "format": "in vivo", "conditions": "2 min post administration, converted from % ID/organ"}, "[2]": {"conditions": "cited from earlier work"}, "Aβ aggregates": {"target": "Aβ aggregates", "conditions": "literature value [45]; read-out: binding affinity to Aβ aggregates (Ki); cited from earlier work"}, "[3]": {"assay": "Blood-brain barrier permeability by biodistribution studies in mice", "format": "in vivo, Swiss Albino mice", "conditions": "for Biodistribution of radioactivity, Blood / Biodistribution of radioactivity, Brain / Biodistribution of radioactivity, Heart / Biodistribution of radioactivity, Intestines / Biodistribution of radioactivity, Kidneys / Biodistribution of radioactivity, Liver / Biodistribution of radioactivity, Lungs / Biodistribution of radioactivity, Muscle / Biodistribution of radioactivity, Pancreas / Biodistribution of radioactivity, Spleen / Biodistribution of radioactivity, Stomach: tail vein injection, healthy Swiss Albino mice; for percentage of radioactivity in the brain: 2 min, Swiss Albino mice", "description": "This evaluation was conducted through biodistribution studies in healthy Swiss Albino mice (5 weeks old, 20-30 g) that were obtained from the breeding facilities of the Institute of Biosciences & Applications, NCSR “Demokritos”. During these experiments we evaluate the distribution of radioactivity in the tissues of the animal after radiolabeled compound administration. For the credibility of the in vivo distribution data, three independent experiments are required for each evaluation, where in each experiment the animal population ranges between 9 and 12. The experiments of synthesis, labelling and biodistribution were carried out in the Laboratory of “Radiopharmaceuticals”, NCSR “Demokritos” that has the required infrastructure to ensure safe conduct of experiments using radioactivity. All the biodistribution studies were carried out in compliance with the Presidential Decree 56/2013 (published in the Official Government Gazette of Greece 106 A/30-4-2013) that has transposed the EU Directive 2010/63 on the protection of animals used for scientific purposes.\nThree groups of mice (three animals per group) were injected in the tail vein with HPLC-purified ^99mTc complexes (1-2 μCi in 0.1 mL, ethanol/saline 1:9). The mice were sacrificed at various time points (2, 15, 90 min) post injection (p.i.). The organs of interest were excised, weighed, and the radioactivity counted in an automatic γ-counter. The stomach and intestines were not emptied of food contents prior to radioactivity measurements. The calculation for blood and muscle was based upon measured activity, sample weight, and body composition data, considering that blood comprises 7% and muscle 43% of body weight. The percentage of injected dose per organ (% ID/organ) was calculated by comparison of sample radioactivity to standard solutions that contained 10% of the injected dose. The percentage of injected dose per gram (% ID/g) was calculated by dividing the % ID/organ by the weight of the organ or tissue.\nwhere cpm reference=(cpm 10% standard×10)−cpm tail."}, "[4]": {"assay": "Lipophilicity, partition coefficient n-octanol/PBS", "format": "physicochemical", "description": "The lipophilicity of ^99mTc-2-^99mTc-4 complexes was determined by the estimation of the partition coefficient in a biphasic system of n-octanol and water (PBS). The partition coefficient was expressed as the logarithm of the ratio of the counts per gram from n-octanol versus those from PBS (log Poct/water), where P is the ratio. The measurement was done in triplicate and repeated three times."}, "[5]": {"assay": "Stability of 99mTc complexes under excess histidine or cysteine (HPLC)", "format": "physicochemical", "conditions": "percentage of intact complex by HPLC, PBS pH 7.4, 37° C.; for Stability, Cysteine, 1 h / Stability, Cysteine, 3 h / Stability, Cysteine, 6 h: excess cysteine; for Stability, Histidine, 1 h / Stability, Histidine, 3 h / Stability, Histidine, 6 h: excess histidine", "description": "The stability of ^99mTc-2-^99mTc-4 complexes was assessed in the presence of excess histidine and cysteine which are capable of acting as tridentate substituents replacing the ligands of the complexes. Each of the HPLC-purified ^99mTc complex (0.5 mL, approx. 10 MBq) was mixed with a solution of histidine or cysteine (2 mM) in 0.1 M PBS, pH 7.4 (0.5 mL). The mixture was incubated at 37° C. and analyzed by HPLC after 1, 3, and 6 h. The recording of the percentage of the intact complexes in the presence of the antagonists at each time point of the study allows the estimation of the stability of the labeled ^99mTc complexes."}, "[6]": {"target": "Aβ42 fibrillar aggregates (Homo sapiens, UniProt P05067)", "sequence (P05067 672-713 limits assumed)": "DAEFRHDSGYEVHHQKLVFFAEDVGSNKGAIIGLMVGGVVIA", "assay": "Competitive binding assay using Aβ42 fibrillar aggregates", "conditions": "homologous competition, Re complex vs corresponding 99mTc complex, 50 nM Aβ42 fibrillar aggregates, 3 h room temperature", "description": "Competitive binding assay studies were performed in 1 mL solutions in PBS in 12 mm×75 mm borosilicate glass tubes according to a published procedure with modifications. […] The solutions were incubated for 3 h at room temperature and the bound and free radioactivity were separated by Millex-GV Syringe Filter Unit, 0.22 μm filters followed by 2×2 mL washes with PBS at room temperature. Filters containing the bound ^99mTc complexes were measured for radioactivity in a γ-counter. Binding studies were repeated in triplicate. The data were analyzed using GraphPad Prism software with the IC50 value calculated using a one-site competitive binding […] regression. The Ki value was calculated using the Cheng-Prousoff equation [44]: […]\nIn the case of homologous competitive binding we assume that the hot and cold ligand have identical affinities so that Kd and Ki have the same value. Thus the above equation is being transformed into: Ki=IC50−[Radioligand]"}}, "note": "Like-named read-outs stand apart in the source and are kept apart here."}
{"smiles": "CCOC(=O)[C@H](C[S-])[N-]CCN[C@@H](C[S-])C(=O)OCC.[O-2].[Tc]", "note": "[^99mTc-ECD, 99mTc-labelled ethylene dicysteine diethyl ester]", "values": [{"measurement": "brain penetration", "setting": "[1]", "result": "approximately 4.4 % ID/gr"}, {"measurement": "brain penetration", "setting": "[2]; 2 min post administration [40]", "result": 1.32, "unit": "% ID/organ"}]}
{"smiles": "CN(C)c1ccc(-c2cn3cc(I)ccc3n2)cc1", "note": "[[^123I]IMPY]", "values": [{"measurement": "Ki", "setting": "Aβ aggregates", "result": "12.5 ± 2.8", "unit": "nM"}]}
{"smiles": "C/C(=N\\[O-])[C@@H](C)[N-]CC(C)(C)C[N-][C@H](C)/C(C)=N/O.[O]=[99Tc+3]", "note": "(racemic) [^99mTc-HMPAO, 99mTc-hexamethylpropyleneamineoxime]", "values": [{"measurement": "brain penetration", "setting": "[2]; 60 min post administration [39]", "result": 5, "unit": "% ID/gr"}]}
{"smiles": "[99Tc+].[C-]#[O+].[C-]#[O+].[C-]#[O+].c1ccc2[nH]c(-[c-]3cccc3)nc2c1", "note": "[^99mTc-3]", "values": [{"measurement": "Biodistribution of radioactivity, Blood", "setting": "[3]; 2 min p.i.", "result": "3.38 ± 0.67", "unit": "% ID/gr"}, {"measurement": "Biodistribution of radioactivity, Blood", "setting": "[3]; 15 min p.i.", "result": "1.86 ± 0.13", "unit": "% ID/gr"}, {"measurement": "Biodistribution of radioactivity, Blood", "setting": "[3]; 90 min p.i.", "result": "0.48 ± 0.12", "unit": "% ID/gr"}, {"measurement": "percentage of radioactivity in the brain", "setting": "[3]", "result": "3.99±0.60", "unit": "% ID/g"}, {"measurement": "Biodistribution of radioactivity, Brain", "setting": "[3]; 2 min p.i.", "result": "3.99 ± 0.60", "unit": "% ID/gr"}, {"measurement": "Biodistribution of radioactivity, Brain", "setting": "[3]; 15 min p.i.", "result": "0.75 ± 0.11", "unit": "% ID/gr"}, {"measurement": "Biodistribution of radioactivity, Brain", "setting": "[3]; 90 min p.i.", "result": "0.04 ± 0.01", "unit": "% ID/gr"}, {"measurement": "Biodistribution of radioactivity, Heart", "setting": "[3]; 2 min p.i.", "result": "7.53 ± 1.28", "unit": "% ID/gr"}, {"measurement": "Biodistribution of radioactivity, Heart", "setting": "[3]; 15 min p.i.", "result": "1.95 ± 0.26", "unit": "% ID/gr"}, {"measurement": "Biodistribution of radioactivity, Heart", "setting": "[3]; 90 min p.i.", "result": "0.22 ± 0.05", "unit": "% ID/gr"}, {"measurement": "Biodistribution of radioactivity, Intestines", "setting": "[3]; 2 min p.i.", "result": "3.06 ± 0.08", "unit": "% ID/gr"}, {"measurement": "Biodistribution of radioactivity, Intestines", "setting": "[3]; 15 min p.i.", "result": "14.80 ± 0.25", "unit": "% ID/gr"}, {"measurement": "Biodistribution of radioactivity, Intestines", "setting": "[3]; 90 min p.i.", "result": "23.94 ± 4.27", "unit": "% ID/gr"}, {"measurement": "Biodistribution of radioactivity, Kidneys", "setting": "[3]; 2 min p.i.", "result": "9.70 ± 0.92", "unit": "% ID/gr"}, {"measurement": "Biodistribution of radioactivity, Kidneys", "setting": "[3]; 15 min p.i.", "result": "5.04 ± 0.53", "unit": "% ID/gr"}, {"measurement": "Biodistribution of radioactivity, Kidneys", "setting": "[3]; 90 min p.i.", "result": "1.57 ± 0.20", "unit": "% ID/gr"}, {"measurement": "Biodistribution of radioactivity, Liver", "setting": "[3]; 2 min p.i.", "result": "13.97 ± 2.13", "unit": "% ID/gr"}, {"measurement": "Biodistribution of radioactivity, Liver", "setting": "[3]; 15 min p.i.", "result": "30.66 ± 3.96", "unit": "% ID/gr"}, {"measurement": "Biodistribution of radioactivity, Liver", "setting": "[3]; 90 min p.i.", "result": "18.08 ± 1.34", "unit": "% ID/gr"}, {"measurement": "Biodistribution of radioactivity, Lungs", "setting": "[3]; 2 min p.i.", "result": "7.09 ± 0.38", "unit": "% ID/gr"}, {"measurement": "Biodistribution of radioactivity, Lungs", "setting": "[3]; 15 min p.i.", "result": "2.44 ± 0.39", "unit": "% ID/gr"}, {"measurement": "Biodistribution of radioactivity, Lungs", "setting": "[3]; 90 min p.i.", "result": "0.45 ± 0.13", "unit": "% ID/gr"}, {"measurement": "Biodistribution of radioactivity, Muscle", "setting": "[3]; 2 min p.i.", "result": "5.23 ± 0.79", "unit": "% ID/gr"}, {"measurement": "Biodistribution of radioactivity, Muscle", "setting": "[3]; 15 min p.i.", "result": "1.50 ± 0.19", "unit": "% ID/gr"}, {"measurement": "Biodistribution of radioactivity, Muscle", "setting": "[3]; 90 min p.i.", "result": "0.15 ± 0.03", "unit": "% ID/gr"}, {"measurement": "Biodistribution of radioactivity, Pancreas", "setting": "[3]; 2 min p.i.", "result": "5.99 ± 0.62", "unit": "% ID/gr"}, {"measurement": "Biodistribution of radioactivity, Pancreas", "setting": "[3]; 15 min p.i.", "result": "1.96 ± 0.25", "unit": "% ID/gr"}, {"measurement": "Biodistribution of radioactivity, Pancreas", "setting": "[3]; 90 min p.i.", "result": "0.21 ± 0.02", "unit": "% ID/gr"}, {"measurement": "Biodistribution of radioactivity, Spleen", "setting": "[3]; 2 min p.i.", "result": "2.63 ± 0.40", "unit": "% ID/gr"}, {"measurement": "Biodistribution of radioactivity, Spleen", "setting": "[3]; 15 min p.i.", "result": "1.01 ± 0.09", "unit": "% ID/gr"}, {"measurement": "Biodistribution of radioactivity, Spleen", "setting": "[3]; 90 min p.i.", "result": "0.17 ± 0.03", "unit": "% ID/gr"}, {"measurement": "Biodistribution of radioactivity, Stomach", "setting": "[3]; 2 min p.i.", "result": "1.63 ± 0.44", "unit": "% ID/gr"}, {"measurement": "Biodistribution of radioactivity, Stomach", "setting": "[3]; 15 min p.i.", "result": "3.17 ± 0.43", "unit": "% ID/gr"}, {"measurement": "Biodistribution of radioactivity, Stomach", "setting": "[3]; 90 min p.i.", "result": "4.63 ± 0.56", "unit": "% ID/gr"}, {"measurement": "Lipophilicity logPoct/water", "setting": "[4]", "result": "1.84 ± 0.17"}, {"measurement": "Stability, Cysteine, 1 h", "setting": "[5]", "result": "98 ± 1"}, {"measurement": "Stability, Cysteine, 3 h", "setting": "[5]", "result": "98 ± 1"}, {"measurement": "Stability, Cysteine, 6 h", "setting": "[5]", "result": "97 ± 2"}, {"measurement": "Stability, Histidine, 1 h", "setting": "[5]", "result": "98 ± 1"}, {"measurement": "Stability, Histidine, 3 h", "setting": "[5]", "result": "98 ± 1"}, {"measurement": "Stability, Histidine, 6 h", "setting": "[5]", "result": "97 ± 1"}, {"measurement": "Ki", "setting": "[6]", "result": "7.04 ± 2.85", "unit": "nM"}]}
{"smiles": "Cn1c(-[c-]2cccc2)nc2ccccc21.[99Tc+].[C-]#[O+].[C-]#[O+].[C-]#[O+]", "note": "[^99mTc-4]", "values": [{"measurement": "percentage of radioactivity in the brain", "setting": "[3]", "result": "6.14±1.00", "unit": "% ID/g"}, {"measurement": "Lipophilicity logPoct/water", "setting": "[4]", "result": "1.50 ± 0.12"}, {"measurement": "Stability, Cysteine, 1 h", "setting": "[5]", "result": "98 ± 1"}, {"measurement": "Stability, Cysteine, 3 h", "setting": "[5]", "result": "95 ± 2"}, {"measurement": "Stability, Cysteine, 6 h", "setting": "[5]", "result": "85 ± 1"}, {"measurement": "Stability, Histidine, 1 h", "setting": "[5]", "result": "98 ± 1"}, {"measurement": "Stability, Histidine, 3 h", "setting": "[5]", "result": "96 ± 1"}, {"measurement": "Stability, Histidine, 6 h", "setting": "[5]", "result": "95 ± 1"}, {"measurement": "Ki", "setting": "[6]", "result": "5.74 ± 2.9", "unit": "nM"}]}
